target: T1, human capsaicin receptor (Homo sapiens, UniProt Q8NER1); assay: Calcium mobilization assay, determination of antagonist activity (Example 6); format: cell-based; settings: Table II; IC50 determined as described in Example 6
T1 construct: pBK-CMV expression construct encoding the full length human capsaicin receptor; expressed in transfected cells
Method: A cDNA encoding full length human capsaicin receptor (SEQ ID NO: 1, 2 or 3 of U.S. Pat. No. 6,482,611) was subcloned in the plasmid pBK-CMV (Stratagene, La Jolla, Calif.) for recombinant expression in mammalian cells.
Human embryonic kidney (HEK293) cells were transfected with the pBK-CMV expression construct encoding the full length human capsaicin receptor using standard methods. The transfected cells were selected for two weeks in media containing G418 (400 μg/ml) to obtain a pool of stably transfected cells. Independent clones were isolated from this pool by limiting dilution to obtain clonal stable cell lines for use in subsequent experiments.
This Example illustrates representative calcium mobilization assays for use in evaluating test compounds for agonist and antagonist activity.
Cells transfected with expression plasmids (as described in Example 4) and thereby expressing human capsaicin receptor are seeded and grown to 70-90% confluency in FALCON black-walled, clear-bottomed 96-well plates (#3904, BECTON-DICKINSON, Franklin Lakes, N.J.). The culture medium is emptied from the 96 well plates and FLUO-3 AM calcium sensitive dye (Molecular Probes, Eugene, Oreg.) is added to each well (dye solution: 1 mg FLUO-3 AM, 440 μL DMSO and 440 pi 20% pluronic acid in DMSO, diluted 1:250 in Krebs-Ringer HEPES (KRH) buffer (25 mM HEPES, 5 mM KCl, 0.96 mM NaH2PO4, 1 mM MgSO4, 2 mM CaCl2, 5 mM glucose, 1 mM probenecid, pH 7.4), 50 μl diluted solution per well). Plates are covered with aluminum foil and incubated at 37° C. for 1-2 hours in an environment containing 5% CO2. After the incubation, the dye is emptied from the plates, and the cells are washed once with KRH buffer, and resuspended in KRH buffer.
To measure the ability of a test compound to agonize or antagonize a calcium mobilization response in cells expressing capsaicin receptors to capsaicin or other vanilloid agonist, the EC50 of the agonist capsaicin is first determined. An additional 20 μl of KRH buffer and 1 μl DMSO is added to each well of cells, prepared as described above. 100 μl capsaicin in KRH buffer is automatically transferred by the FLIPR instrument to each well. Capsaicin-induced calcium mobilization is monitored using either FLUOROSKAN ASCENT (Labsystems; Franklin, Mass.) or FLIPR (fluorometric imaging plate reader system; Molecular Devices, Sunnyvale, Calif.) instruments. Data obtained between 30 and 60 seconds after agonist application are used to generate an 8-point concentration response curve, with final capsaicin concentrations of 1 nM to 3 μM. KALEIDAGRAPH software (Synergy Software, Reading, Pa.) is used to fit the data to the equation: y=a*(1/(1+(b/x)^c)) to determine the 50% excitatory concentration (EC50) for the response. In this equation, y is the maximum fluorescence signal, x is the concentration of the agonist or antagonist (in this case, capsaicin), a is the Emax, b corresponds to the EC50 value and c is the Hill coefficient. Determination of Agonist Activity
Test compounds are dissolved in DMSO, diluted in 20 μl KRH buffer so that the final concentration of test compounds in the assay well is between 1 μM and 5 μM, and added to cells prepared as described above. The 96 well plates containing prepared cells and test compounds are incubated in the dark, at room temperature for 0.5 to 6 hours. It is important that the incubation not continue beyond 6 hours. Just prior to determining the fluorescence response, 100 pi capsaicin in KRH buffer at twice the EC50 concentration determined as described above is automatically added by the FLIPR instrument to each well of the 96 well plate for a final sample volume of 200 μl and a final capsaicin concentration equal to the EC50. The final concentration of test compounds in the assay wells is between 1 μM and 5 μM. […]

T1 sequence (Q8NER1 whole entry): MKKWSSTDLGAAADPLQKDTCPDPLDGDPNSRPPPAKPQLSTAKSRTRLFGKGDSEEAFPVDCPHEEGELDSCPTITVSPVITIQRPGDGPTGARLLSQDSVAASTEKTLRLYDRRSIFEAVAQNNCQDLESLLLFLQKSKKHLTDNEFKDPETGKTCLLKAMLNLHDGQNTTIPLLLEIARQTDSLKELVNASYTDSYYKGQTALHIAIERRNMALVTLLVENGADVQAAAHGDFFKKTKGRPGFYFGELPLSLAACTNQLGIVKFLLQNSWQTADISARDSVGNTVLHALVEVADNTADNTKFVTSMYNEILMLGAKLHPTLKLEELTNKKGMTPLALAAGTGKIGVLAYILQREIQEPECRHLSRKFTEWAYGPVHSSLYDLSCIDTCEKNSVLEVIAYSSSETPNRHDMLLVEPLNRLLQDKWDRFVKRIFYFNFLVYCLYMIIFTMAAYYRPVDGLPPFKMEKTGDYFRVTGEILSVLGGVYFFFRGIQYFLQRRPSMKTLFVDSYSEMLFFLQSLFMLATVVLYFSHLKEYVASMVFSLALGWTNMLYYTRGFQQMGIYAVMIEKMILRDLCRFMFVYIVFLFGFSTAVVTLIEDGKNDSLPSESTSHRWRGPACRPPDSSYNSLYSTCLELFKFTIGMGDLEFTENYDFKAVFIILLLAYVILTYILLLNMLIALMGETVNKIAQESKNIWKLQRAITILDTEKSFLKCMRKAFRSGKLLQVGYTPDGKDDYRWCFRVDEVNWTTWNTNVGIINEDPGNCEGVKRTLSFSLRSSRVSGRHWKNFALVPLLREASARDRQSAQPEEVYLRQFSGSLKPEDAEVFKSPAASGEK

IC50, ≤ 1 µM:
Fc1ccc(F)c(-c2nc(N3CCOCC3)nc(N3CCN(c4ccccn4)CC3)n2)c1 [Example 422, 2-(2,5-difluorophenyl)-4-morpholin-4-yl-6-(4-pyridin-2-ylpiperazin-1-yl)-1,3,5-triazine]
Fc1ccc(-c2nc(N3CCOCC3)nc(N3CCN(c4ccccn4)CC3)n2)c(F)c1 [Example 423, 2-(2,4-difluorophenyl)-4-morpholin-4-yl-6-(4-pyridin-2-ylpiperazin-1-yl)-1,3,5-triazine]
Fc1ccc(-c2nc(N3CCOCC3)nc(N3CCN(c4ccccn4)CC3)n2)cc1F [Example 424, 2-(3,4-difluorophenyl)-4-morpholin-4-yl-6-(4-pyridin-2-ylpiperazin-1-yl)-1,3,5-triazine]
Fc1ccc(-c2nc(N3CCOCC3)nc(N3CCN(c4ncccc4C(F)(F)F)CC3)n2)cc1Cl [Example 426, 2-(3-chioro-4-fluorophenyl)-4-morpholin-4-yl-6-{4-[3-(trifluoromethyl)pyridin-2-yl]piperazin-1-yl}-1,3,5-triazine]
Fc1ccc(-c2nc(N3CCOCC3)nc(N3CCN(c4ncccc4Cl)CC3)n2)cc1Cl [Example 427, 2-(3-chloro-4-fluorophenyl)-4-[4-(3-chloropyridin-2-yl)piperazin-1-yl]-6-morpholin-4-yl-1,3,5-triazine]
Fc1ccc(-c2nc(N3CCOCC3)nc(N3CCN(c4ncccc4C(F)(F)F)CC3)n2)cc1F [Example 428, 2-(3,4-difluorophenyl)-4-morpholin-4-yl-6-{4-[3-(trifluoromethyl)pyridin-2-yl]piperazin-1-yl}-1,3,5-triazine]
COc1ccc(C(C)C)cc1-c1nc(N2CCOCC2)nc(N2CCN(c3ccccn3)CC2)n1 [Example 430, 2-(5-isopropyl-2-methoxyphenyl)-4-morpholin-4-yl-6-(4-pyridin-2-ylpiperazin-1-yl)-1,3,5-triazine]
COc1ccc(Cl)cc1-c1nc(N2CCOCC2)nc(N2CCN(c3ccccn3)CC2)n1 [Example 431, 2-(5-chloro-2-methoxyphenyl)-4-morpholin-4-yl-6-(4-pyridin-2-ylpiperazin-1-yl)-1,3,5-triazine]
c1ccc(N2CCN(c3nc(-c4cccc5c4oc4ccccc45)nc(N4CCOCC4)n3)CC2)nc1 [Example 432, 2-dibenzo[b,d]furan-4-yl-4-morpholin-4-yl-6-(4-pyridin-2-ylpiperazin-1-yl)-1,3,5-triazine]
CCOC(=O)c1cccc(-c2nc(N3CCOCC3)nc(N3CCN(c4ccccn4)CC3)n2)c1 [Example 434, ethyl 3-[4-morpholin-4-yl-6-(4-pyridin-2-ylpiperazin-1-yl)-1,3,5-triazin-2-yl]benzoate]
N#Cc1cccc(-c2nc(N3CCOCC3)nc(N3CCN(c4ncccc4C(F)(F)F)CC3)n2)c1 [Example 435, 3-(4-morpholin-4-yl-6-{4-[3-(trifluoromethyl)pyridin-2-yl]piperazin-1-yl}-1,3,5-triazin-2-yl)benzonitrile]
N#Cc1ccc(-c2nc(N3CCOCC3)nc(N3CCN(c4ncccc4C(F)(F)F)CC3)n2)cc1 [Example 436, 4-(4-morpholin-4-yl-6-{4-[3-(trifluoromethyl)pyridin-2-yl]piperazin-1-yl}-1,3,5-triazin-2-yl)benzonitrile]
FC(F)(F)c1ccc(-c2nc(N3CCOCC3)nc(N3CCN(c4ncccc4C(F)(F)F)CC3)n2)cc1 [Example 437, 2-morpholin-4-yl-4-[4-(trifluoromethyl)phenyl]-6-{4-[3-(trifluoromethyl)pyridin-2-yl]piperazin-1-yl}-1,3,5-triazine]
FC(F)(F)c1cccc(-c2nc(N3CCOCC3)nc(N3CCN(c4ncccc4C(F)(F)F)CC3)n2)c1 [Example 438, 2-morpholin-4-yl-4-[3-(trifluoromethyl)phenyl]-6-{4-[3-(trifluoromethyl)pyridin-2-yl]piperazin-1-yl}-1,3,5-triazine]
C=CCN1CCN(c2nc(-c3ccccc3)nc(N3CCN(c4ncccc4C(F)(F)F)CC3)n2)CC1 [Example 440, 2-(4-allylpiperazin-1-yl)-4-phenyl-6-{4-[3-(trifluoromethyl)pyridin-2-yl]piperazin-1-yl}-1,3,5-triazine]

same assay, conditions: Table II; determined as described in Example 6; class symbol

IC50, ≤ 1 µM:
Cc1cccc(-c2nc(N3CCCCCC3)nc(N3CCN(c4ncccc4C(F)(F)F)CC3)n2)c1 [Example 262, 1-(4-(3-methylphenyl)-6-{4-[3-(trifluoromethyl)pyridin-2-yl]piperazin-1-yl}-1,3,5-triazin-2-yl)azepane]
Cc1cccc(-c2nc(N3CCN(c4ncccc4C(F)(F)F)CC3)nc(N3CC(C)OC(C)C3)n2)c1 (stereo not drawn) [Example 263, 2-(2,6-dimethylmorpholin-4-yl)-4-(3-methylphenyl)-6-{4-[3-(trifluoromethyl)pyridin-2-yl]piperazin-1-yl}-1,3,5-triazine]
Fc1ccc(-c2nc(N3CCCCCC3)nc(N3CCN(c4ncccc4C(F)(F)F)CC3)n2)cc1Cl [Example 265, 1-(4-(3-chloro-4-fluorophenyi)-6-{4-[3-(trifluoromethyl)pyridin-2-yl]piperazin-1-yl}-1,3,5-triazin-2-yl)azepane]
CC1CN(c2nc(-c3ccc(F)c(Cl)c3)nc(N3CCN(c4ncccc4C(F)(F)F)CC3)n2)CC(C)O1 (stereo not drawn) [Example 266, 2-(3-chloro-4-fluorophenyl)-4-(2,6-dimethylmorpholin-4-yl)-6-{4-[3-(trifluoromethyl)pyridin-2-yl]piperazin-1-yl}-1,3,5-triazine]
Cc1ccccc1-c1nc(N2CCOCC2)nc(N2CCN(c3ccccn3)CC2)n1 [Example 268, 2-(2-methylphenyl)-4-morpholin-4-yl-6-(4-pyridin-2-ylpiperazin-1-yl)-1,3,5-triazine]
Cc1ccc(C)c(-c2nc(N3CCOCC3)nc(N3CCN(c4ccccn4)CC3)n2)c1 [Example 269, 2-(2,5-dimethylphenyl)-4-morpholin-4-yl-6-(4-pyridin-2-ylpiperazin-1-yl)-1,3,5-triazine]
c1ccc(N2CCN(c3nc(-c4cccc5ccccc45)nc(N4CCOCC4)n3)CC2)nc1 [Example 270, 2-morpholin-4-yl-4-(1-naphthyl)-6-(4-pyridin-2-ylpiperazin-1-yl)-1,3,5-triazine]
Cc1cccc(-c2nc(N3CCOCC3)nc(N3CCN(c4ccccn4)CC3)n2)c1C [Example 271, 2-(2,3-dimethylphenyl)-4-morpholin-4-yl-6-(4-pyridin-2-ylpiperazin-1-yl)-1,3,5-triazine]
Cc1ccc(F)cc1-c1nc(N2CCOCC2)nc(N2CCN(c3ccccn3)CC2)n1 [Example 272, 2-(5-fluoro-2-methylphenyl)-4-morpholin-4-yl-6-(4-pyridin-2-ylpiperazin-1-yl)-1,3,5-triazine]
Cc1cc(F)ccc1-c1nc(N2CCOCC2)nc(N2CCN(c3ccccn3)CC2)n1 [Example 273, 2-(4-fluoro-2-methylphenyl)-4-morpholin-4-yl-6-(4-pyridin-2-ylpiperazin-1-yl)-1,3,5-triazine]
CCc1ccccc1-c1nc(N2CCOCC2)nc(N2CCN(c3ccccn3)CC2)n1 [Example 274, 2-(2-ethylphenyl)-4-morpholin-4-yl-6-(4-pyridin-2-ylpiperazin-1-yl)-1,3,5-triazine]
Cc1ccc(-c2nc(N3CCOCC3)nc(N3CCN(c4ccccn4)CC3)n2)c2ccccc12 [Example 276, 2-(4-methyl-1-naphthyl)-4-morpholin-4-yl-6-(4-pyridin-2-ylpiperazin-1-yl)-1,3,5-triazine]

Reference: patent publication US7566712B2, “Biaryl piperazinyl-pyridine analogues” (Neurogen Corporation, priority 2003, dated 2009)
